Experimental data as given in ChEMBL document CHEMBL4334436 (Medchemcomm, 2019).

How the values were obtained:
D(2) dopamine receptor = D(2) dopamine receptor (Homo sapiens, UniProt P14416); assay: Displacement of [3H]spiperone from human dopamine D2S receptor expressed in CHO-K1 cell membrane incubated for 2 hrs by MicroBeta Trilux scintillation counting method; assay type: cell membranes
D(3) dopamine receptor = D(3) dopamine receptor (Homo sapiens, UniProt P35462); assay: Displacement of [3H]spiperone from human dopamine D3 receptor expressed in dihydrofolate reductase deficient CHO-K1 cell membrane incubated for 2 hrs by MicroBeta Trilux scintillation counting method; assay type: cell membranes
Sequence of D(3) dopamine receptor (P35462 whole entry): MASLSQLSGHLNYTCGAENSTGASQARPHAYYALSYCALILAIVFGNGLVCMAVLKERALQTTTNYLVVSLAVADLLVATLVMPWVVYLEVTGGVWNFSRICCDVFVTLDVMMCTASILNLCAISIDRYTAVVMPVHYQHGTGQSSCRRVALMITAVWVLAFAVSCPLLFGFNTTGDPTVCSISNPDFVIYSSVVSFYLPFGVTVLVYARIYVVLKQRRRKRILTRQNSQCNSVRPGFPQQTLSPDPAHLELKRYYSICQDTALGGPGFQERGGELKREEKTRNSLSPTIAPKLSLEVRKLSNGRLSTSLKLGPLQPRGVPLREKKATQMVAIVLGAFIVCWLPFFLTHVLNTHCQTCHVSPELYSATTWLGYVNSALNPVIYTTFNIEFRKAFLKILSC

Sequence of D(2) dopamine receptor (P14416 whole entry): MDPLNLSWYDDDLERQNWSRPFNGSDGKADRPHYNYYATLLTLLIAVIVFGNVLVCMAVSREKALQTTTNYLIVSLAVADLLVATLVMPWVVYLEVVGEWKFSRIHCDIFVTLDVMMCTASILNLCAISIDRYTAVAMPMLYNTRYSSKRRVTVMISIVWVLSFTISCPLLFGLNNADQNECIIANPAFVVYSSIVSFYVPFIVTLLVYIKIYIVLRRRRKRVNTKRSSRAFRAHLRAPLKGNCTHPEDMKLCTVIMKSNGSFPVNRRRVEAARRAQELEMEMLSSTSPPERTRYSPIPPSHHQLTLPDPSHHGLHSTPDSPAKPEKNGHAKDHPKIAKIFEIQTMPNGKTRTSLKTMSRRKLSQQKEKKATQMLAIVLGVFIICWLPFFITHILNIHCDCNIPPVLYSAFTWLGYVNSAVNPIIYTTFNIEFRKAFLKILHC

| Compound | Ki (D(2) dopamine receptor) | Ki (D(3) dopamine receptor) |
| --- | --- | --- |
| Nc1nc2c(s1)CCN(CCCCN1CCN(c3ncccn3)CC1)CC2 | 2750 nM | 3800 nM |
| O=C(c1ccccc1)N1CCN(CCN2CCc3ncsc3CC2)CC1 | 41700 nM | 12300 nM |
| c1cnc(N2CCN(CCCCN3CCc4ncsc4CC3)CC2)nc1 | 2510 nM | 3090 nM |
| Clc1cccc(N2CCN(CCCCN3CCc4ncsc4CC3)CC2)c1Cl | 18.2 nM | 28.2 nM |
| COc1ccccc1N1CCN(CCCCOc2ccc3scnc3c2)CC1 | 3.24 nM | 8.51 nM |
| COc1ccccc1N1CCN(CCN2CCc3ncsc3CC2)CC1 | 151 nM | 240 nM |
| O=C(NCCCCN1CCc2ncsc2CC1)C12CC3CC(CC(C3)C1)C2 | 5500 nM | 447 nM |
| COc1ccccc1N1CCN(CCCCOc2ccc3sc(N)nc3c2)CC1 | 2.82 nM | 3.02 nM |
| c1nc2c(s1)CCN(CCCCN1CCc3ncsc3CC1)CC2 | 6310 nM | 3800 nM |
| COc1ccccc1N1CCN(CCCN2CCCc3ncsc3C2)CC1 | 178 nM | 257 nM |
| COc1ccccc1N1CCN(CCCN2CCc3ncsc3CC2)CC1 | 64.6 nM | 166 nM |
| Nc1nc2c(s1)CCN(CCCCN1CCN(c3cccc(Cl)c3Cl)CC1)CC2 | 22.4 nM | 25.7 nM |
| COc1ccccc1N1CCN(CCCCN2CCc3ncsc3CC2)CC1 | 85.1 nM | 309 nM |
